Patent publication US20250296961A1, “ANTIMICROBIAL PEPTIDES FOR REMINERALIZATION OF TEETH AND PREVENTION OF DENTAL CARIES” (The University of Hong Kong, priority 2021, published 2025)
Like-named read-outs stand apart in the source and are kept apart here.

Legend:
[1] = test system: S. mutans biofilms; type: cell-based
Procedure: Streptococcus mutans (ATCC 35668, ATCC, Manassas, USA) were cultured in Horse Blood Medium under anaerobic (85% N2, 10% H2, and 5% CO2) conditions at 37° C. Cells were harvested by centrifugation (5000 rpm, 10 min), washed once with 10 mM sodium phosphate-buffered saline (PBS, pH 7.2), and resuspended in brain-heart infusion broth (BHI, Difco Laboratories, Detroit, USA) at a concentration of 10^6 CFU/mL.
S. mutans biofilms were cultured on enamel working surfaces in a 96-well plate. Tooth slices (N=32) were autoclave-sterilized prior to anti-biofilm activity testing. 200 μL S. mutans in BHI (10^6 CFU/mL) was added to each well. After a 24-h incubation at 37° C., each tooth slice was washed once with PBS. […] (in 10 mM HEPES). After incubation, tooth slices were washed once with PBS. One tooth slice at random in each group was stained with the LIVE/DEAD BacLight Bacterial Viability Kit (L7012, Thermo Fisher Scientific, Waltham, USA) and incubated in the dark for 30 min. Fluorescence images were obtained using confocal laser scanning microscopy (CLSM, Fluoview 1000, Olympus, USA). A separate tooth slice was used for the counting of colony-forming units (CFU). Tooth slices were placed in 1 mL BHI solution, and adherent biofilms were removed from the enamel surfaces by sonication for 30 sec. Ten-fold serial dilutions of the suspensions were plated in duplicate on horse blood agar. CFU's were counted after 48-h incubation. Three independent biofilm experiments were performed.

[2] = Remineralization assay of peptide-coated enamel (Example 1); set-up: species or system human; details: 8 μmol/mL coating, remineralization solution 24 h, FE-SEM
Procedure: 3×3×1.5 mm^3 (number: 197) tooth slices were prepared using a water-cooled diamond saw (IsoMet low-speed saw, Buehler, Lake Bluff, IL, USA). One working surface of complete enamel tissue from each tooth slice was generated using the MicroCT Skyscan 1172 (Bruker MicroCT, Kontich, Belgium). The enamel working side of the tooth slice was polished and other sides marked with acid-proof nail polish. All tooth slices were cleaned and stored in deionized water at 4° C.
The enamel working surface of tooth slices (N=30) was acid-etched in 37% phosphoric acid for 1 min and rinsed with deionized water for 1 min. The slices were immersed in 8 μmol/mL P-113, P-113-DPS, P-113-DA, P-113-SK, Sp-H5 (n=5 for each) solutions (in 10 mM HEPES) or HEPES (control) overnight. All tooth slices were incubated in 7 mL remineralization solution (2.58 mM CaCl2)·2H2O, 1.55 mM KH2PO4, 10 mg/L NaF, 180 mM NaCl, 50 mM Tris-HCl, pH 7.6) for 24 h. The enamel surface and cross-section morphology were analyzed by FE-SEM (Hitachi, S4800). Ca/P concentrations in the solutions before and after immersion were calculated by ICP-OES. The mean values for Ca/P gain were analyzed using ANOVA at the 1‰ significance level.

[3] = test system: S. mutans; assay: Anti-planktonic bacterial ability, MBC (Example 2); type: cell-based, S. mutans (ATCC 35668)
Procedure: (§1) S. mutans (ATCC 35668, ATCC, Manassas, USA), S. gordonii (ATCC 35105, ATCC, Manassas, USA), and S. sanguinis (ATCC 10556, ATCC, Manassas, USA) strains were cultured in brain-heart infusion broth (BHI, Difco Laboratories, Detroit, USA) at 37° C. under anaerobic conditions (85% N2, 10% H2, and 5% CO2). Bacteria were harvested by centrifugation (5000 rpm, 10 min), washed once with sodium phosphate-buffered saline (PBS, 10 mM, pH=7.2), and resuspended in BHI at a concentration of 1×10^6 CFU mL^−1.
(§2) Each well was seeded with 10 μL S. mutans suspension, S. gordonii suspension, and S. sanguinis suspension, respectively. […] The bacterial growth was assessed by measuring the absorbance at 595 nm using a microplate reader after a 24-hour incubation. Subsequently, 10 μL of bacterial suspension from each well were plated on horse blood agar plates and incubated at 37° C. for 48 h. The antibacterial activities of AMPs were evaluated.

[4] = test system: S. gordonii; assay: Anti-planktonic bacterial ability, MBC (Example 2); type: cell-based, S. gordonii (ATCC 35105)
Procedure: as §1, §2

[5] = test system: S. sanguinis; assay: Anti-planktonic bacterial ability, MBC (Example 2); type: cell-based, S. sanguinis (ATCC 10556)
Procedure: as §1, §2

AKRHHGYKRKFH [Peptide P-113, non-specific AMP, portion of human histatin 5]
S. mutans killed (biofilm) ([1]; 128 μmol/mL, 24 h exposure): 79%
S. mutans killed (biofilm) ([1]; 160 μmol/mL): 87%
CLSM live/dead state of S. mutans biofilm ([1]; 24 h, concentration not given): the majority of S. mutans in BHI and P-113 were alive
Thickness of the regenerated crystal layer on the enamel surface [2]: 6 μm
MBC, S. mutans [3]: >128 μM mL^−1
MBC, S. gordonii [4]: >128 μM mL^−1
MBC, S. sanguinis [5]: >128 μM mL^−1
